Source: PMC7248098, “Biochemical characterization and inhibition of the alternative oxidase enzyme from the fungal phytopathogen Moniliophthora perniciosa” (Communications Biology, 2020)
Values joined by “and” are separate entries in the source; they are usually repeats but may differ in a detail not shown here. Identical values can stand only once.

How the values were obtained:
membrane-bound rMpAOX [1] = biological target: T1, membrane-bound rMpAOX (Moniliophthora perniciosa, UniProt A8QJP8); test: Dose-response assay of inhibitors with membrane-bound, GMP-activated rMpAOX (NADH oxidation); assay type: biochemical; details: for Fractional velocity, %: log[I]
Description: (§1) E. coli membrane preparation was performed as described with minor modifications. […] The cells were disrupted using two passes at […] through a pre-cooled Constant cell disruption system (Constant Systems Ltd). The lysate was centrifuged for 15 min at 16,000 rcf, and the pelleted unbroken cells and large cell debris were discarded. The supernatant was centrifuged for 90 min at 200,000 rcf to collect the fragmented membranes.
(§2) Respiration rates were recorded before and after the addition of putative AOX activators, such as 5′-ADP, 5′-AMP, 5′-GDP, 5′-GMP, glyoxylate, oxaloacetate, pyruvate or succinate (1 mM each unless stated otherwise). […] Data were acquired with the Multiskan FC Microplate Photometer (ThermoFisher). […] Absorbance readings were taken periodically and a blank reactions (substrate without enzyme) were included in every assay and were used to determine and subtract the autoxidation rate (background). Proteoliposomes were assayed as described for the E. coli membrane fraction except that no KCN was included and 0.5 µL of the prep (~50 ng rMpAOX) were added into the reaction. When tested, inhibitors were preincubated with the enzyme in reaction buffer for 2–5 min before starting the reaction by the addition of substrate. The path length (i.e., the height of the reaction medium inside the well) was calculated based on the reaction volume and the well cross-section area informed by the supplier. GraphPad Prism 7.0 (GraphPad Software Inc.) was used for function fitting.

membrane-bound TAO [2] = test: Inhibition of membrane-bound TAO (literature); assay type: biochemical, Trypanosoma brucei; details: from literature IC50 values
membrane-bound TAO [3] = test system: membrane-bound TAO; parameters: method as in PMID 23180806; details: cited from earlier work
membrane-bound rMpAOX [4] = biological target: T1, membrane-bound rMpAOX; test: Membrane-bound rMpAOX activity with putative activators (O2 uptake, oxygraph; dose-response); assay type: biochemical;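 on Fractional velocity, %: 100% is the maximal rate reached in the activator titration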
Description: as §1, §2

purified rMpAOX = purified rMpAOX (Moniliophthora perniciosa, UniProt A8QJP8); test: Purified (detergent-solubilised) rMpAOX, Q1H2 oxidation; assay type: biochemical; details: GMP up to 0.5 mM, purified rMpAOX
Description: The E. coli membrane fraction was resuspended with 50 mM Tris-HCl pH 7.5, 20% glycerol, 200 mM MgSO4 and 1% Fos-Choline-12 (FC-12) instead of MOPS buffer. The sample was left under gentle rocking for 1 h at 4 °C, after which it was centrifuged at 200,000 rcf for 30 min. […] T. Elthon, Nebraska, USA. Protein content was estimated through the Bradford method[63] and bovine serum albumin as standard.
as §2

[5] = biological target: rMpAOX incorporated into proteoliposomes (Moniliophthora perniciosa, UniProt A8QJP8); test: rMpAOX incorporated into proteoliposomes with Q10 and NDH-2 (NADH oxidation); assay type: biochemical; details: PL system
Description: Proteoliposomes (PL) were prepared as previously described[44],[45], except that NDH-2 was used instead of complex I and 0.5% DDM was used instead of OG. […] For kinetic studies, PLs were prepared with 50 µg rMpAOX and no NDH-2—in this case, pure NDH-2 was added directly into the enzymatic reaction mixture at a saturating concentration. Briefly, lipids and Q10 stocks in chloroform were mixed in a glass vial and the chloroform dried under a nitrogen stream. The lipids were hydrated and extruded through a 100 nm NanoSizer MINI Liposome Extruder (T&T Scientific) followed by the addition of protein. After treatment with the Bio-Beads SM-2 Resin (Bio-Rad), proteolipososmes were harvested by ultracentrifugation and resuspended in 150 µL of buffer. Enzymatic assays were performed on the same day.
as §2

[6] = test system: WBD (witches' broom disease of cocoa, M. perniciosa); parameters: method as in PMID 30350447; details: 200 µM, in the absence of a main respiration inhibitor; cited from earlier work

T1 sequence (A8QJP8 entry or part of it): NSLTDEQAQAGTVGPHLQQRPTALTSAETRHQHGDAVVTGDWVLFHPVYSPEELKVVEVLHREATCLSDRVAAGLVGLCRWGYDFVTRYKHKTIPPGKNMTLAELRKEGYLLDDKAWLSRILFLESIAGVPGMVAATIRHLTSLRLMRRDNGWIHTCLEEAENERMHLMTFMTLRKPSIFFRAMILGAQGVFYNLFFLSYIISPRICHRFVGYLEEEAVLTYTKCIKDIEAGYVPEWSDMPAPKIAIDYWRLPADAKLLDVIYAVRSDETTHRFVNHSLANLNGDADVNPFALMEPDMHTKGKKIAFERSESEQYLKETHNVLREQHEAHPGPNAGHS
rMpAOX incorporated into proteoliposomes, sequence (A8QJP8 entry or part of it): as above
purified rMpAOX, sequence (A8QJP8 entry or part of it): as above

With `CC(/C=C/[C@@]1(C)[C@H](C)CCC(=O)[C@@H]1C)=C\Cc1c(O)c(Cl)c(C)c(C=O)c1O` [AC, ascochlorin] the IC50 (membrane-bound rMpAOX [1]) was 5.25 µM, the “Fractional velocity, %” value (membrane-bound rMpAOX [1]; M -5.60206 (Fig2b), 2.5 µM) was 73.3239% and 61.6121% and the “Fractional velocity, %” value (membrane-bound rMpAOX [1]; M -6.60206 (Fig2b), 0.25 µM) was 96.489% and 80.5494%. For the same compound, the “Fractional velocity, %” value (membrane-bound rMpAOX [1]; M -7.60206 (Fig2b), 0.025 µM) was 98.3896% and 89.3939%, the “Fractional velocity, %” value (membrane-bound rMpAOX [1]; M -8.60206 (Fig2b), 0.0025 µM) was 99.2565% and 89.0077% and the “Fractional velocity, %” value (membrane-bound rMpAOX [1]; M -9.60206 (Fig2b), 0.00025 µM) was 97.0686% and 90.2842%. The “Fractional velocity, %” value (membrane-bound rMpAOX [1]; M -10.6021 (Fig2b), 25 pM) was 95.0559% and 89.2874%, the activity at 2.5 µM (membrane-bound rMpAOX [1]; read-out: Fractional velocity, %, log[I], M -5.60206 (Fig2b)) was 60.8% and the activity at 0.25 µM (membrane-bound rMpAOX [1]; read-out: Fractional velocity, %, log[I], M -6.60206 (Fig2b)) was 92.8%. For the same compound, the activity at 0.025 µM (membrane-bound rMpAOX [1]; read-out: Fractional velocity, %, log[I], M -7.60206 (Fig2b)) was 98.2%, the activity at 0.0025 µM (membrane-bound rMpAOX [1]; read-out: Fractional velocity, %, log[I], M -8.60206 (Fig2b)) was 97.9% and the activity at 0.00025 µM (membrane-bound rMpAOX [1]; read-out: Fractional velocity, %, log[I], M -9.60206 (Fig2b)) was 95.5%. The activity at 25 pM (membrane-bound rMpAOX [1]; read-out: Fractional velocity, %, log[I], M -10.6021 (Fig2b)) was 93.4%, the “Ratio of AC IC50 to CB IC50 (TAO)” value (membrane-bound TAO [2]) was 7.5 and the IC50 (membrane-bound TAO [3]) was 0.0015 µM.
In the case of `Nc1nc2c(ncn2[C@@H]2O[C@H](COP(=O)(O)O)[C@@H](O)[C@H]2O)c(=O)[nH]1` [GMP, 5′-GMP], the “Maximum membrane-bound rMpAOX oxygen uptake” value (membrane-bound rMpAOX [4]; 1 mM GMP) is reported as 0.67 µmol O2 min^−1 mg total protein^−1, the “Maximum membrane-bound rMpAOX oxygen uptake per mg AOX” value (membrane-bound rMpAOX [4]; 1 mM GMP) is reported as 5 µmol O2 min^−1 mg AOX^−1 and the “Increase of membrane-bound rMpAOX oxygen uptake” value (membrane-bound rMpAOX [4]; 1 mM activator) is reported as 9.8 times. For the same compound, the “Fold-change in membrane-bound rMpAOX O2 uptake” value (membrane-bound rMpAOX [4]; 1 mM each, single independent measurements (Fig1a)) was 8.8788 and 10.5259 and 10.0722, the “Fractional velocity, %” value (membrane-bound rMpAOX [4]; [activator] 0.025 mM (Fig1b)) was 56.6% and 57.7% and the “Fractional velocity, %” value (membrane-bound rMpAOX [4]; [activator] 0.075 mM (Fig1b)) was 100.5% and 91.4%. The “Fractional velocity, %” value (membrane-bound rMpAOX [4]; [activator] 0.175 mM (Fig1b)) was 125.1% and 121.5%, the “Fractional velocity, %” value (membrane-bound rMpAOX [4]; [activator] 0.375 mM (Fig1b)) was 153.9% and 143.6% and the “Fractional velocity, %” value (membrane-bound rMpAOX [4]; [activator] 0.625 mM (Fig1b)) was 166.3% and 158.4%. The “Fractional velocity, %” value (membrane-bound rMpAOX [4]; [activator] 1.125 mM (Fig1b)) was 182.1% and 175.1%, the “Fractional velocity, %” value (membrane-bound rMpAOX [4]; [activator] 2.125 mM (Fig1b)) was 186.8% and 187.9% and the “Fractional velocity, %” value (membrane-bound rMpAOX [4]; [activator] 4.125 mM (Fig1b)) was 193.5% and 196.9%. For the same compound, the “Fractional velocity, %” value (membrane-bound rMpAOX [4]; [activator] 6.625 mM (Fig1b)) was 206.9% and 200.9%, the EC50 (membrane-bound rMpAOX [4]; membrane-bound rMpAOX, 4-parameter sigmoid fit, read-out: EC50 of rMpAOX activation) was 166 µM and the “Effect on rMpAOX kinetic parameters KM and VMax” value (purified rMpAOX) was “did not alter”. For the same compound, the “Sensitivity of rMpAOX to GMP” value [5] was “not regained”.
In the case of `O=C(Nc1cccc(Br)c1)c1cccc(F)c1` [N-(3-bromophenyl)-3-fluorobenzamide], the “Effect in plants against WBD” value [6] is given as “protective effect”.
